PubChem BioAssay AID248 (DTP/NCI, 2004)
Values joined by “and” are separate entries in the source; they are usually repeats but may differ in a detail not shown here. Equal entries are not always repeated. Inconclusive results and toxic doses are left out. Rule as the data show it: active = T/C of 150% or more; inactive = T/C below 125%.

System: L1210 leukemia ip in BDF1 mice, survival T/C
Assay: NCI In Vivo Anticancer Drug Screen. Data for tumor model L1210 Leukemia (intraperitoneal) in B6D2F1 (BDF1) mice
Settings: endpoint: mean survival time, higher = longer survival
Summary of the method: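 Read-out is survival time, reported as the treated-group measurement over the vehicle-control measurement.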

[1] = dose: 25.0 mg/kg/injection, schedule: Q01DX009 (ip), vehicle: Klucel (hydroxypropylcellulose) (HPC)
[2] = dose: 100.0 mg/kg/injection, schedule: Q04DX002 (ip), vehicle: Klucel (hydroxypropylcellulose) (HPC)
[3] = dose: 100.0 mg/kg/injection, schedule: Q01DX001 (ip), vehicle: saline
[4] = dose: 200.0 mg/kg/injection, schedule: Q01DX001 (ip), vehicle: saline
[5] = dose: 400.0 mg/kg/injection, schedule: Q01DX001 (ip), vehicle: saline
[6] = dose: 50.0 mg/kg/injection, schedule: Q01DX009 (ip), vehicle: Klucel (hydroxypropylcellulose) (HPC)
[7] = dose: 100.0 mg/kg/injection, schedule: Q01DX009 (ip), vehicle: Klucel (hydroxypropylcellulose) (HPC)
[8] = dose: 100.0 mg/kg/injection, schedule: Q04DX003 (ip), vehicle: Klucel (hydroxypropylcellulose) (HPC)
[9] = dose: 200.0 mg/kg/injection, schedule: Q04DX003 (ip), vehicle: Klucel (hydroxypropylcellulose) (HPC)
[10] = dose: 400.0 mg/kg/injection, schedule: Q04DX003 (ip), vehicle: Klucel (hydroxypropylcellulose) (HPC)

Measured: T/C

N#CC1(N2CCC3(CC2)OCCO3)CCCCC1
inactive: dose: 12.5 mg/kg/injection, schedule: Q01DX009 (ip), vehicle: Klucel (hydroxypropylcellulose) (HPC) 101 % of control | dose: 12.5 mg/kg/injection, schedule: Q04DX003 (ip), vehicle: Klucel (hydroxypropylcellulose) (HPC) 91 % of control | [1] 95 % of control | dose: 25.0 mg/kg/injection, schedule: Q04DX002 (ip), vehicle: Klucel (hydroxypropylcellulose) (HPC) 107 % of control | dose: 25.0 mg/kg/injection, schedule: Q04DX003 (ip), vehicle: Klucel (hydroxypropylcellulose) (HPC) 100 % of control | dose: 50.0 mg/kg/injection, schedule: Q04DX002 (ip), vehicle: Klucel (hydroxypropylcellulose) (HPC) 96 % of control | [2] 95 % of control

C=CCC1(C(=C)C)C(=O)NC(=S)NC1=O
inactive: dose: 75.0 mg/kg/injection, schedule: Q01DX001 (ip), vehicle: carboxymethylcellulose (CMC) 95 % of control | dose: 75.0 mg/kg/injection, schedule: Q01DX001 (ip), vehicle: saline 91 % of control | dose: 150.0 mg/kg/injection, schedule: Q01DX001 (ip), vehicle: carboxymethylcellulose (CMC) 105 % of control | dose: 150.0 mg/kg/injection, schedule: Q01DX001 (ip), vehicle: saline 102 % of control

CSc1ncc(Br)c(N2CC2)n1
inactive: dose: 59.0 mg/kg/injection, schedule: Q01DX Z (ip), vehicle: methylcellulose (MC) 89 % of control | dose: 88.0 mg/kg/injection, schedule: Q01DX Z (ip), vehicle: methylcellulose (MC) 86 % of control

CCN(CC(=O)O)CC(=O)O
inactive: [3] 93 % of control | [4] 112 % of control | [5] 96 % of control

Cc1ccc(-c2ccc(-c3ccc(C)cc3)o2)cc1
inactive: dose: 100.0 mg/kg/injection, schedule: Q01DX001 (ip), vehicle: Klucel (hydroxypropylcellulose) (HPC) 95 % of control | dose: 200.0 mg/kg/injection, schedule: Q01DX001 (ip), vehicle: Klucel (hydroxypropylcellulose) (HPC) 102 % of control and 90 % of control | dose: 400.0 mg/kg/injection, schedule: Q01DX001 (ip), vehicle: Klucel (hydroxypropylcellulose) (HPC) 94 % of control

Fc1ccc(F)c(-c2c(F)ccc(F)c2F)c1F
inactive: dose: 25.6 mg/kg/injection, schedule: Q04DX002 (ip), vehicle: saline with Tween-80 100 % of control | dose: 64.0 mg/kg/injection, schedule: Q04DX002 (ip), vehicle: saline with Tween-80 113 % of control | dose: 160.0 mg/kg/injection, schedule: Q04DX002 (ip), vehicle: saline with Tween-80 95 % of control | dose: 400.0 mg/kg/injection, schedule: Q04DX002 (ip), vehicle: saline with Tween-80 103 % of control

CCOc1ccc2ccccc2c1
inactive: [3] 102 % of control | [4] 98 % of control | [5] 102 % of control

CCN(CC)C(=O)CCC(=O)O
inactive: dose: 100.0 mg/kg/injection, schedule: Q04DX002 (ip), vehicle: saline 89 % of control | dose: 200.0 mg/kg/injection, schedule: Q04DX002 (ip), vehicle: saline 103 % of control | dose: 400.0 mg/kg/injection, schedule: Q04DX002 (ip), vehicle: saline 103 % of control

C=CCOCC(O)CN(CCC(C)C)CCC(C)C (centres undefined)
inactive: [1] 95 % of control | [6] 97 % of control | [7] 96 % of control and 100 % of control | [8] 102 % of control | [9] 91 % of control

Clc1ccc(/C=C/c2cccc(/C=C/c3ccc(Cl)cc3)n2)cc1
inactive: [8] 96 % of control | [9] 97 % of control | [10] 97 % of control

Brc1cccc2ccccc12
inactive: [1] 89 % of control | [6] 86 % of control | [7] 99 % of control | [2] 112 % of control | dose: 200.0 mg/kg/injection, schedule: Q04DX002 (ip), vehicle: Klucel (hydroxypropylcellulose) (HPC) 105 % of control | dose: 400.0 mg/kg/injection, schedule: Q04DX002 (ip), vehicle: Klucel (hydroxypropylcellulose) (HPC) 119 % of control

NC1=C(c2ccccc2)C(=O)c2ccccc21
inactive: [7] 107 % of control | [8] 106 % of control | dose: 200.0 mg/kg/injection, schedule: Q01DX009 (ip), vehicle: Klucel (hydroxypropylcellulose) (HPC) 86 % of control | [9] 95 % of control | dose: 400.0 mg/kg/injection, schedule: Q01DX009 (ip), vehicle: Klucel (hydroxypropylcellulose) (HPC) 96 % of control | [10] 90 % of control
